In ChEMBL document CHEMBL1687942, “Benzimidazole inhibitors induce a DFG-out conformation of never in mitosis gene A-related kinase 2 (Nek2) without binding to the back pocket and reveal a nonlinear structure-activity relationship” (J Med Chem, 2011):
Activity calls are given as the source filed them. The calls are words filed in the database; no cut-off is given here.

Key:
[1] = biological target: T1, Serine/threonine-protein kinase Nek2 (Homo sapiens, UniProt P51955)
T1 sequence (P51955 whole entry): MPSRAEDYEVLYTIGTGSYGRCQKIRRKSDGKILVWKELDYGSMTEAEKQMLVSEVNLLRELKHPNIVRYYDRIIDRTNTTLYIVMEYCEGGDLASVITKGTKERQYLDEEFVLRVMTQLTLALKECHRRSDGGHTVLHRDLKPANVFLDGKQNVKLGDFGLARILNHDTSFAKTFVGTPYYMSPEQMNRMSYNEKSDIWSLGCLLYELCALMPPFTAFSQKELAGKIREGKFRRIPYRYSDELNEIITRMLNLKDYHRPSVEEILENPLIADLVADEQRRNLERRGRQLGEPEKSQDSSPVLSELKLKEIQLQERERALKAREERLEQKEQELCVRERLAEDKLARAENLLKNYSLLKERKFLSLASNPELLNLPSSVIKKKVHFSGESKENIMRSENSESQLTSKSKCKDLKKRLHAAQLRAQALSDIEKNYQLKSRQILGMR

[2] = biological target: T2, Serine/threonine-protein kinase PLK1 (Homo sapiens, UniProt P53350); test: Inhibition of polo-like kinase 1 activity
[3] = biological target: T3, Serine/threonine-protein kinase Nek2 (Homo sapiens) (UniProt P51955); test: Inhibition of NEK2 at 200 uM
T3 sequence (whole entry): T1 sequence (P51955 whole entry)

[4] = biological target: T2, Serine/threonine-protein kinase PLK1; test: Inhibition of polo-like kinase 1 activity at 100 uM
[5] = biological target: T1, Serine/threonine-protein kinase Nek2; test: Inhibition of NEK2 autophosphorylation preincubated with compound by DELFIA assay
[6] = biological target: T1, Serine/threonine-protein kinase Nek2; test: Inhibition of NEK2 assessed as inhibition of substrate phosphorylation preincubated for 5 mins before addition of substrate by DELFIA assay
[7] = biological target: T2, Serine/threonine-protein kinase PLK1; conditions: 200 uM
Description: Inhibition of polo-like kinase 1 activity at 200 uM

[8] = Apparent permeability of the compound by PAMPA at pH 7.4
[9] = biological target: Tyrosine-protein kinase ABL1 (Mus musculus) (UniProt P00520); test: Inhibition of mouse Abl at 2 uM
Chain of Tyrosine-protein kinase ABL1 (Mus musculus) (P00520 whole entry): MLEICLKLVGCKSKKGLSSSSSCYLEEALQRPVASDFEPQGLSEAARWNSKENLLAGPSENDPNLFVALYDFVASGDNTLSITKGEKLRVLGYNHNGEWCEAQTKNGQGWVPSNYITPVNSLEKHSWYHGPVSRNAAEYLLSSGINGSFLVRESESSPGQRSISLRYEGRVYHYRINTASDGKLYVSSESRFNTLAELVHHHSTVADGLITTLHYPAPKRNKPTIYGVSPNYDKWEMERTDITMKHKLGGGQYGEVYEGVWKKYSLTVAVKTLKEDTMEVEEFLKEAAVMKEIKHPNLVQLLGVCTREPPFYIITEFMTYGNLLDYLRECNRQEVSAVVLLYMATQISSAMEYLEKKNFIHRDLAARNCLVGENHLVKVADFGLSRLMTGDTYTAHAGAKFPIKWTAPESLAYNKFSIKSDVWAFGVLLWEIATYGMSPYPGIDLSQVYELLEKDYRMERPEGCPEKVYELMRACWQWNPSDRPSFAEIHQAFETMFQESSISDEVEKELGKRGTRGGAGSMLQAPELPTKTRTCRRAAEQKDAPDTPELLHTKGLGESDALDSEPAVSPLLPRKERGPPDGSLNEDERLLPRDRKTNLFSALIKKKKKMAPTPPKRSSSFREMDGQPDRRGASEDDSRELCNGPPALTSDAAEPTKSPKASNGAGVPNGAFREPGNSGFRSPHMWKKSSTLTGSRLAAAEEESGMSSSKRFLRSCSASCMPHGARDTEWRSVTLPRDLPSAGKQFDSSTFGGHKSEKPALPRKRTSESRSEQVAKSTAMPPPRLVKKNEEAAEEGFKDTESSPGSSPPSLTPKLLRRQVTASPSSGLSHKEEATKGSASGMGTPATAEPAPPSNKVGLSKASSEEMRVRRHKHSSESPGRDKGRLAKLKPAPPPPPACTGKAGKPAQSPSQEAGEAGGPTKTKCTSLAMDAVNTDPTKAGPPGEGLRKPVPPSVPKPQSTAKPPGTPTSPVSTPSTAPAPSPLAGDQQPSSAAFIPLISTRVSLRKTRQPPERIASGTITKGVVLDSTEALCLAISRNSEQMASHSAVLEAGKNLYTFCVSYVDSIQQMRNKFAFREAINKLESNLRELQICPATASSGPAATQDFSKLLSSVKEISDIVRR

T2 sequence (P53350 whole entry): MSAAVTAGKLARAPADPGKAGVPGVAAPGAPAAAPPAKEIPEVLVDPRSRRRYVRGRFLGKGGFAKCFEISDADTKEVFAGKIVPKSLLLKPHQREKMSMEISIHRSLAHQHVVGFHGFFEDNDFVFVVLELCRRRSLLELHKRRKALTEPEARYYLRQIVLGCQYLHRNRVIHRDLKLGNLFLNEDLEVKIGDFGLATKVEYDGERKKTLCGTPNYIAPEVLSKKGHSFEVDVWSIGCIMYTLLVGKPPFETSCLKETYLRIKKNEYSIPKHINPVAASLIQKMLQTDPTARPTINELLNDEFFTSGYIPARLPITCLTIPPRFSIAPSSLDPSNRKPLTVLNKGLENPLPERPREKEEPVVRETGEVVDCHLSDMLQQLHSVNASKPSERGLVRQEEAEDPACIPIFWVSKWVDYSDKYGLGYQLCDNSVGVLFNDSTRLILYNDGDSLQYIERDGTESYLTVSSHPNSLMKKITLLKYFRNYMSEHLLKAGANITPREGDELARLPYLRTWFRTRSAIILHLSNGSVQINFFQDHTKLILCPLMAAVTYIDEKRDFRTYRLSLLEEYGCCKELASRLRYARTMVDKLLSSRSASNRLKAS

CC(Oc1cc(-n2cnc3ccc(OC4CCN(C)CC4)cc32)ccc1C(N)=O)c1ccccc1C(F)(F)F (racemic)
IC50 [1]: 660 nM | IC50 [2]: 190 nM

CC(Oc1cc(-n2cnc3cc(OC4CCCCC4)ccc32)ccc1C(N)=O)c1ccccc1C(F)(F)F (racemic)
inhibition [3]: inactive | inhibition [4]: inactive

CN1CCC(Oc2ccc3ncn(-c4cc(OCc5ccccc5C(F)(F)F)c(C(N)=O)s4)c3c2)CC1
IC50 [2]: < 9 nM

CC(Oc1cc(-n2cnc3ccc(OC4CCN(C)CC4)cc32)sc1C(N)=O)c1ccccc1C(F)(F)F (racemic)
IC50 [5]: 50 nM | IC50 [6]: 200 nM

C[C@H](Oc1cc(-n2cnc3cc(OC4CCN(C)CC4)ccc32)ccc1C(N)=O)c1ccccc1C(F)(F)F
inhibition [7]: inactive

CC(Oc1cc(-n2cnc3cc(OCCCN(C)C)ccc32)ccc1C(N)=O)c1ccccc1C(F)(F)F (racemic)
IC50 [1]: 380 nM | IC50 [2]: 15200 nM

COc1cc(-n2cnc3ccccc32)sc1C(N)=O
IC50 [1]: 86000 nM | IC50 [2]: 5310 nM

C[C@@H](Oc1cc(-n2cnc3cc(OC4CCN(C)CC4)ccc32)ccc1C(N)=O)c1ccccc1C(F)(F)F
Papp [8]: 33.4 ×10⁻⁶ cm/s | IC50 [2]: 51300 nM

CC(Oc1cc(-n2cnc3ccccc32)sc1C(N)=O)c1ccccc1C(F)(F)F (racemic)
IC50 [1]: > 50000 nM | IC50 [2]: < 9 nM

CC(Oc1cc(-n2cnc3cc(OC4CCN(C)CC4)ccc32)ccc1C(N)=O)c1ccccc1C(F)(F)F (racemic)
inhibition [9]: Active | IC50 [2]: 87900 nM

COc1cc(-n2cnc3ccc(OC4CCN(C)CC4)cc32)sc1C(N)=O
IC50 [1]: 64400 nM | IC50 [2]: 1330 nM

CC(Oc1cc(-n2cnc3ccc(OC4CCN(C)CC4)cc32)sc1C(N)=O)c1ccccc1 (racemic)
IC50 [1]: 6570 nM | IC50 [2]: 66 nM

CN1CCC(Oc2ccc3ncn(-c4cc(OCc5ccccc5)c(C(N)=O)s4)c3c2)CC1
IC50 [1]: 5430 nM | IC50 [2]: 69 nM

CC(Oc1cc(-n2cnc3cc(OC4CCN(C5CC5)CC4)ccc32)ccc1C(N)=O)c1ccccc1C(F)(F)F (racemic)
inhibition [4]: inactive | IC50 [1]: 2560 nM
